We go through 15 compounds from US12180207B2 (ARRAY BIOPHARMA INC., priority 2018, dated 2024).

Broadly, the IC50 is the concentration needed to halve the response being measured.

For assay [1], the target named is HEK-293 cells transfected with dox-inducible human wild type FGFR3 (Homo sapiens (Human), UniProt P22607). As to the kind of experiment: FGFR3 pERK cell assay. The format is cell-based. The conditions noted are these: HEK-293 dox-inducible FGFR3, 1 hour compound, 100 ng/ml FGF-acidic; maximum concentration 5 μM. The procedure, abridged: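 Doxycycline-induced cells preincubated 1 h at 37 °C with compound (1:3 dilutions, top 5 μM final), then stimulated 5 min with 100 ng/ml FGF-acidic. Lysate phospho-ERK1/2 measured by MSD sandwich assay; IC50 at 50 POC from 4-parameter fit, normalised to no-compound and control-compound wells.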

Assay [2] concerns the target phosphorylated FGFR3 (SEQ ID NO: 5, amino acids 449 to 759) (Homo sapiens (Human), UniProt P22607). As to the kind of experiment: FGFR enzyme binding assay (HTRF tracer displacement), FGFR3. The conditions noted are these: 5 nM phosphorylated FGFR3, average of multiple determinations if made. In short, it runs like this:
(§1)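 Compounds were tested for displacement of a tracer from human FGFR kinase in a time-resolved FRET binding format. After 60 minutes at 22° C, signal was read at two wavelengths and converted to percent of control, normalised between untreated wells and 1 μM reference inhibitor.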
(In general: In TR-FRET formats the signal depends on donor and acceptor labels being close together.)

Another assay deals with dephosphorylated FGFR2 (Homo sapiens (Human), UniProt P21802). As to the kind of experiment: FGFR enzyme binding assay (HTRF tracer displacement), FGFR2. Particulars: 5 nM dephosphorylated FGFR2, average of multiple determinations if made. The protocol: The potency of compounds inhibiting human isoforms of FGFR kinase was determined using Life Technologies' Homogeneous Time Resolved Fluorescence (HTRF)-based binding assay technology. […] After a 60 minute incubation at 22° C., the extent of tracer displacement was determined using a PerkinElmer EnVision multimode plate reader via HTRF dual wavelength detection, and the percent of control (POC) was calculated using a ratiometric emission factor. One hundred POC was determined using no test compound, and 0 POC was determined in the presence of 1 μM of an appropriate control inhibitor.

In assay [3] the target is recombinant human FGFR1 catalytic domain (amino acids 308-731) (Homo sapiens (Human), UniProt P11362). As to the kind of experiment: FGFR1 enzyme activity assay (LanthaScreen TR-FRET). The format is biochemical. Particulars: 20 min incubation at 22° C., average of multiple determinations if made, read-out: FGFR1 Enz FRET IC50. The procedure, abridged: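 His-tagged FGFR1 kinase domain with 100 nM Alexa Fluor 647-poly-GT peptide and ATP in pH 7.5 HEPES/MgCl2 buffer with 2% DMSO, 20 min at 22 °C. Quenched with EDTA plus 2 nM Eu-PY20 antibody and read after 60 min. IC50 comes from a 4-parameter fit of percent of control.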

The target of assay [4] is dephosphorylated FGFR1 (SEQ ID NO: 1, amino acids 458 to 765) (Homo sapiens (Human), UniProt P11362). The assay can be described thus: FGFR enzyme binding assay (HTRF tracer displacement), FGFR1. The conditions noted are these: 5 nM dephosphorylated FGFR1, average of multiple determinations if made. In short, it runs like this:
as §1

Chain of phosphorylated FGFR3 (SEQ ID NO: 5, amino acids 449 to 759) (P22607 449-759): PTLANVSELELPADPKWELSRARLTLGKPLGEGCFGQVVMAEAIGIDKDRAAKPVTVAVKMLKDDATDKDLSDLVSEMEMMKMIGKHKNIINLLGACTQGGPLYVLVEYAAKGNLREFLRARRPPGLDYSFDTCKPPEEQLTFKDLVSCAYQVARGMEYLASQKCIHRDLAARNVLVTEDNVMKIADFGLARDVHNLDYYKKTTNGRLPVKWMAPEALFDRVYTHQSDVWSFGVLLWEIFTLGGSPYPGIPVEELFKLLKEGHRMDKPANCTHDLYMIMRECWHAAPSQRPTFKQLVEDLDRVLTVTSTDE
Chain of dephosphorylated FGFR2 (P21802 22-821): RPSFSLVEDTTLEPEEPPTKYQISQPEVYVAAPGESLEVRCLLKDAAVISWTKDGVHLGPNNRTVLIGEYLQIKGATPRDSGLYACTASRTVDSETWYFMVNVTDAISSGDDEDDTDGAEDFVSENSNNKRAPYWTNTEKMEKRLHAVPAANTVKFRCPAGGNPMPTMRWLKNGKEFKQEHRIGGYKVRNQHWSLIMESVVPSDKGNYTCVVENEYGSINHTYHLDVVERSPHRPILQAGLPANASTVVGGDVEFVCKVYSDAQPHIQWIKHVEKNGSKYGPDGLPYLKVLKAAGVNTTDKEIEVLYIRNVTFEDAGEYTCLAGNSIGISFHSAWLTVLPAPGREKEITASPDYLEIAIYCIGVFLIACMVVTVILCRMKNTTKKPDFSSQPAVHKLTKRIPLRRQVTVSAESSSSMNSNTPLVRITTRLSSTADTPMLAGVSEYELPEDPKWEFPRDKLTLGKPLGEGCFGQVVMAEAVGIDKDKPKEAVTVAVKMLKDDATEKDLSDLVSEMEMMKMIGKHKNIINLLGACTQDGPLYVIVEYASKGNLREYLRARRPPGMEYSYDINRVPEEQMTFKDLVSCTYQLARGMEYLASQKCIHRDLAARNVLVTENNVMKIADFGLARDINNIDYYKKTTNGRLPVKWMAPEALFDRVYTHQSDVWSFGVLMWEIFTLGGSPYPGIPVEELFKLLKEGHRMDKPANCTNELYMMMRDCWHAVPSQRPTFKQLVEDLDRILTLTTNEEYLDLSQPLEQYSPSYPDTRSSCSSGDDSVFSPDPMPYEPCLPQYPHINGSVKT
Chain of HEK-293 cells transfected with dox-inducible human wild type FGFR3 (P22607 23-806): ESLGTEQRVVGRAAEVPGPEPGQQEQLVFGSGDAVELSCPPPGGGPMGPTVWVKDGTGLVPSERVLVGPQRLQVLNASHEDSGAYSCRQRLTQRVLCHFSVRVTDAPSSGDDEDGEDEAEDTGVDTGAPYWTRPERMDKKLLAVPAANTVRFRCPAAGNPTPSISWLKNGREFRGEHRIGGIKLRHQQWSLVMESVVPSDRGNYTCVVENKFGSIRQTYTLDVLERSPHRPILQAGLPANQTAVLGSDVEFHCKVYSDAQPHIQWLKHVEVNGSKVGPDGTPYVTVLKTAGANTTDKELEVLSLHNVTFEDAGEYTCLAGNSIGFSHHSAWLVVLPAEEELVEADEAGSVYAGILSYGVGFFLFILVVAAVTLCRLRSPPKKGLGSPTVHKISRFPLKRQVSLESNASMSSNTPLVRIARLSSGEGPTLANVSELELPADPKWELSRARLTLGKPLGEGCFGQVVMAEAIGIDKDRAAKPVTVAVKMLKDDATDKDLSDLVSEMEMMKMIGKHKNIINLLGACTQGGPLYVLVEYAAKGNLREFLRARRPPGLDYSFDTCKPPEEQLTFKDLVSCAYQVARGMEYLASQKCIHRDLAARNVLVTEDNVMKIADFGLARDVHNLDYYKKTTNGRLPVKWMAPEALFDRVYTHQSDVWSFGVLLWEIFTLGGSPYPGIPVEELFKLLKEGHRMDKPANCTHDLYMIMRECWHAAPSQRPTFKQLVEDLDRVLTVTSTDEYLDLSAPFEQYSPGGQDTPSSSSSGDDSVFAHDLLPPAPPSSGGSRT
Chain of dephosphorylated FGFR1 (SEQ ID NO: 1, amino acids 458 to 765) (P11362 458-765): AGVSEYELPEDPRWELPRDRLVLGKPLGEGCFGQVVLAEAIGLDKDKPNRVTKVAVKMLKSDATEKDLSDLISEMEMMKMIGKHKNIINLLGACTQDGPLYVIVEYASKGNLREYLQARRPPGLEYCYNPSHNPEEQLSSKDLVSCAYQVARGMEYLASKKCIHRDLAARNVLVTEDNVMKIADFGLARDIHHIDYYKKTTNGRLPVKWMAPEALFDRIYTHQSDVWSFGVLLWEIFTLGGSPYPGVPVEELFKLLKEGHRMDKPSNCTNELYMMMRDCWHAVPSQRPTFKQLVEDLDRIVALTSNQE
Chain of recombinant human FGFR1 catalytic domain (amino acids 308-731) (P11362 other isoform, or with tags, fused parts or gaps): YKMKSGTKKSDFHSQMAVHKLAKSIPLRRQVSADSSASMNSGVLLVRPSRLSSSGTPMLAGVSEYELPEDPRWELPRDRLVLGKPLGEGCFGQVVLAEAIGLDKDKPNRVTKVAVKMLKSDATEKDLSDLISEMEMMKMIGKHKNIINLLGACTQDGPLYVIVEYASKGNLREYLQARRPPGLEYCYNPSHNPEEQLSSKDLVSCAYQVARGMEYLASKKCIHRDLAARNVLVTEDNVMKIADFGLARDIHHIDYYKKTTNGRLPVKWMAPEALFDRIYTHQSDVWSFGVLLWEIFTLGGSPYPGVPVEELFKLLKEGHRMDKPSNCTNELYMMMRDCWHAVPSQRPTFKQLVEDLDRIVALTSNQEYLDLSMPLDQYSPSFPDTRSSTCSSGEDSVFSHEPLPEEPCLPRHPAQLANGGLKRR

In the case of `COc1cc(-c2cnn(C3CCN(CC4(OC)CN(C(=O)/C=C/CN(C)C)C4)CC3)c2C)cn2ncc(C#N)c12` [Example 159, (E)-6-(1-(1-((1-(4-(dimethylamino)but-2-enoyl)-3-methoxyazetidin-3-yl)methyl)piperidin-4-yl)-5-methyl-1H-pyrazol-4-yl)-4-methoxypyrazolo [1,5-a]pyridine-3-carbonitrile], the 50% inhibitory concentration (IC50) was determined as 30 nM in assay [1]; 3 nM in assay [2]; 24 nM at dephosphorylated FGFR2; 70 nM in assay [3]; 144 nM in assay [4].
Take `COc1cc(-c2cnn(C3CN(C(=O)C4(F)CN(C(=O)/C=C/CN(C)C)C4)C3)c2C)cn2ncc(C#N)c12` [Example 160, (E)-6-(1-(1-(1-(4-(dimethylamino)but-2-enoyl)-3-fluoroazetidine-3-carbonyl)azetidin-3-yl)-5-methyl-1H-pyrazol-4-yl)-4-methoxypyrazolo [1,5-a]pyridine-3-carbonitrile]: the concentration for half-maximal inhibition (IC50) was 481 nM in assay [1]; 16 nM in assay [2]; 33 nM on dephosphorylated FGFR2; 248 nM in assay [3]; 571 nM in assay [4].
With `COc1cc(-c2c(C)nn(C3CCN(C(=O)C4(F)CN(C(=O)/C=C/CN(C)C)C4)CC3)c2C)cn2ncc(C#N)c12` [Example 161, (E)-6-(1-(1-(1-(4-(dimethylamino)but-2-enoyl)-3-fluoroazetidine-3-carbonyl)piperidin-4-yl)-3,5-dimethyl-1H-pyrazol-4-yl)-4-methoxypyrazolo [1,5-a]pyridine-3-carbonitrile], the IC50 in assay [1] turned out to be 133 nM; in assay [2], 5 nM; at dephosphorylated FGFR2, 44 nM; in assay [3] it was 154 nM; in assay [4], 589 nM.
Consider `CCc1c(-c2cc(OC)c3c(C#N)cnn3c2)cnn1C1CCN(C(=O)C2(F)CN(C(=O)/C=C/CN(C)C)C2)CC1` [Example 162, (E)-6-(1-(1-(1-(4-(dimethylamino)but-2-enoyl)-3-fluoroazetidine-3-carbonyl)piperidin-4-yl)-5-ethyl-1H-pyrazol-4-yl)-4-methoxypyrazolo [1,5-a]pyridine-3-carbonitrile], for which the IC50 in assay [1] was 357 nM; in assay [2], 48 nM; on dephosphorylated FGFR2 it was 462 nM; in assay [3] it was 311 nM; in assay [4] it was 1720 nM.
Turning to `COc1cc(-c2nn(C3CCN(C(=O)C4(F)CN(C(=O)/C=C/CN(C)C)C4)CC3)nc2C)cn2ncc(C#N)c12` [Example 163, (E)-6-(2-(1-(1-(4-(dimethylamino)but-2-enoyl)-3-fluoroazetidine-3-carbonyl)piperidin-4-yl)-5-methyl-2H-1,2,3-triazol-4-yl)-4-methoxypyrazolo [1,5-a]pyridine-3-carbonitrile], the IC50 in assay [1] was determined as 207 nM; in assay [2], 34 nM; at dephosphorylated FGFR2 it was 125 nM; in assay [3] it was 2210 nM; in assay [4] it was 1140 nM.
The like results for `COc1cc(-c2nnn(C3CCN(C(=O)C4(F)CN(C(=O)/C=C/CN(C)C)C4)CC3)c2C)cn2ncc(C#N)c12` [Example 164, (E)-6-(1-(1-(1-(4-(dimethylamino)but-2-enoyl)-3-fluoroazetidine-3-carbonyl)piperidin-4-yl)-5-methyl-1H-1,2,3-triazol-4-yl)-4-methoxypyrazolo [1,5-a]pyridine-3-carbonitrile] were, in that order, 188 nM, 3 nM, 14 nM, 102 nM and 350 nM.
For the compound `COc1cc(-c2ccc(N3CCN(C(=O)C4(F)CN(C(=O)/C=C/CN(C)C)C4)CC3)nc2C)cn2ncc(C#N)c12` [Example 168, (E)-6-(6-(4-(1-(4-(dimethylamino)but-2-enoyl)-3-fluoroazetidine-3-carbonyl)piperazin-1-yl)-2-methylpyridin-3-yl)-4-methoxypyrazolo [1,5-a]pyridine-3-carbonitrile], the IC50 was 99 nM in assay [1]; 34 nM in assay [2]; 219 nM on dephosphorylated FGFR2; 148 nM in assay [3]; 608 nM in assay [4].
`COc1cc(-c2cnn(C3CCN(C(=O)C4(F)CN(C(=O)/C=C/CN(C)C)C4)CC3)c2C)cn2ncc(Cl)c12` [Example 170, (E)-1-(3-(4-(4-(3-chloro-4-methoxypyrazolo [1,5-a]pyridin-6-yl)-5-methyl-1H-pyrazol-1-yl)piperidine-1-carbonyl)-3-fluoroazetidin-1-yl)-4-(dimethylamino)but-2-en-1-one]: the 50% inhibitory concentration (IC50) turned out to be 55 nM in assay [1]; 5 nM in assay [2]; 22 nM on dephosphorylated FGFR2; 903 nM in assay [3]; 488 nM in assay [4].
The like results for `COc1cc(-c2cnn(C3CCN(C(=O)C4(OC)CN(C(=O)/C=C/CN(C)C)C4)CC3)c2C)cn2ncc(Cl)c12` [Example 171, (E)-1-(3-(4-(4-(3-chloro-4-methoxypyrazolo [1,5-a]pyridin-6-yl)-5-methyl-1H-pyrazol-1-yl)piperidine-1-carbonyl)-3-methoxyazetidin-1-yl)-4-(dimethylamino)but-2-en-1-one] were, in that order, 50 nM, 5 nM, 41 nM, 111 nM and 336 nM.
The like results for `C=CC(=O)N1CC(O)(C(=O)N2CCC(n3ncc(-c4cc(OC)c5c(Cl)cnn5c4)c3C)CC2)C1` [Example 172, 1-(3-(4-(4-(3-chloro-4-methoxypyrazolo [1,5-a]pyridin-6-yl)-5-methyl-1H-pyrazol-1-yl)piperidine-1-carbonyl)-3-hydroxyazetidin-1-yl)prop-2-en-1-one] were, in that order, 171 nM, 25 nM, 125 nM, 856 nM and 922 nM.
For `COc1cc(-c2cnn(C3CCN(CC4(OC)CN(C(=O)/C=C/CN(C)C)C4)CC3)c2C)cn2ncc(Cl)c12` [Example 173, (E)-1-(3-((4-(4-(3-chloro-4-methoxypyrazolo [1,5-a]pyridin-6-yl)-5-methyl-1H-pyrazol-1-yl)piperidin-1-yl)methyl)-3-methoxyazetidin-1-yl)-4-(dimethylamino)but-2-en-1-one] the same measures were 164 nM, 7 nM, 45 nM, 281 nM and 359 nM.
Regarding `COc1cc(-c2cnn(C3CCN(C(=O)C4CN(C(=O)C#CCO)C4)CC3)c2)cn2ncc(C#N)c12` [Example 179, 6-(1-(1-(1-(4-hydroxybut-2-ynoyl)azetidine-3-carbonyl)piperidin-4-yl)-1H-pyrazol-4-yl)-4-methoxypyrazolo[1,5-a]pyridine-3-carbonitrile], the IC50 is 236 nM in assay [1]; 1 nM in assay [2]; 6 nM on dephosphorylated FGFR2; 15 nM in assay [3]; 22 nM in assay [4].
`COc1cc(-c2cnn(C3CCN(C(=O)C4CN(C(=O)/C=C/CCl)C4)CC3)c2)cn2ncc(C#N)c12` [Example 181, (E)-6-(1-(1-(1-(4-chlorobut-2-enoyl)azetidine-3-carbonyl)piperidin-4-yl)-1H-pyrazol-4-yl)-4-methoxypyrazolo[1,5-a]pyridine-3-carbonitrile]: the IC50 was found to be 34 nM in assay [1]; 3 nM in assay [2]; 12 nM at dephosphorylated FGFR2; 9 nM in assay [3]; 32 nM in assay [4].
Turning to `COc1cc(-c2cnn(C3CCN(C(=O)C4CN(C(=O)/C=C/CN5CC[C@H](F)C5)C4)CC3)c2)cn2ncc(C#N)c12` [Example 182, (S,E)-6-(1-(1-(1-(4-(3-fluoropyrrolidin-1-yl)but-2-enoyl)azetidine-3-carbonyl)piperidin-4-yl)-1H-pyrazol-4-yl)-4-methoxypyrazolo[1,5-a]pyridine-3-carbonitrile], the 50% inhibitory concentration (IC50) is 348 nM in assay [1]; 2 nM in assay [2]; 15 nM at dephosphorylated FGFR2; 12 nM in assay [3]; 40 nM in assay [4].
The like results for `COc1cc(-c2cnn(C3CCN(C(=O)C4CN(C(=O)/C=C/CN5CC[C@@H](F)C5)C4)CC3)c2)cn2ncc(C#N)c12` [Example 183, (R,E)-6-(1-(1-(1-(4-(3-fluoropyrrolidin-1-yl)but-2-enoyl)azetidine-3-carbonyl)piperidin-4-yl)-1H-pyrazol-4-yl)-4-methoxypyrazolo[1,5-a]pyridine-3-carbonitrile] were, in that order, 592 nM, 4 nM, 19 nM, 16 nM and 46 nM.
